Test results from US11021481B2, “Substituted isoindolin-1-ones and 2,3-dihydro-1h-pyrrolo[3,4-c]pyridin-1-ones as HPK1 antagonists” (Nimbus Saturn, Inc., priority 2019, dated 2021).

molecular target: HPK1 (Homo sapiens (Human), UniProt Q92918); assay: HPK1 biochemical enzyme assay (microfluidic mobility shift assay); details: 1.5 nM HPK1, ATP 1 mM final, 30 min preincubation, 60 min at RT, Caliper EZ Reader; read-out: HPK1 1000UMATP caliper IC50
In short: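 Ten-point compound titrations (top 3 μM final) preincubated 30 min with HPK1 and substrate, then reaction started with 1 mM ATP and 1 μM substrate, 5 mM MgCl2. After 60 min at RT, reaction terminated and product measured by microfluidic mobility shift.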

Sequence of HPK1 (Q92918 whole entry): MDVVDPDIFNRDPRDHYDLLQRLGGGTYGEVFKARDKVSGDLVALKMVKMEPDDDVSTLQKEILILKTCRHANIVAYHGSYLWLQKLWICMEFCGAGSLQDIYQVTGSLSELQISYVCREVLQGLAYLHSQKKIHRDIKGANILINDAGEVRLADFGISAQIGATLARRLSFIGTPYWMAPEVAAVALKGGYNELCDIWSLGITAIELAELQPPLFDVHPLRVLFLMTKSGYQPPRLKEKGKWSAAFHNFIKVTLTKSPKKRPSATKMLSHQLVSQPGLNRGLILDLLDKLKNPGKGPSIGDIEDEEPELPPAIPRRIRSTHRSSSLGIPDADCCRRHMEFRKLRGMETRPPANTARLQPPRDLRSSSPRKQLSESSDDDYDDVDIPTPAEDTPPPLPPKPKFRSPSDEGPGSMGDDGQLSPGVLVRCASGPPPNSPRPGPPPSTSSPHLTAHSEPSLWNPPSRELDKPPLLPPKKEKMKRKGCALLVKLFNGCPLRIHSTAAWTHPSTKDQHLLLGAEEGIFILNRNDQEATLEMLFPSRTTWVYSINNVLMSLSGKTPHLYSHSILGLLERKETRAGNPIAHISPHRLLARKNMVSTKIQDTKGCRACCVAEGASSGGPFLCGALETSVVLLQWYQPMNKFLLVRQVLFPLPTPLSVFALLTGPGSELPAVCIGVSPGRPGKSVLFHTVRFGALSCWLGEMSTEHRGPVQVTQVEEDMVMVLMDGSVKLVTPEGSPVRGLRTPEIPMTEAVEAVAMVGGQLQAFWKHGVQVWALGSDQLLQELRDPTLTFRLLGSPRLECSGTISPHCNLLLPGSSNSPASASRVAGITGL

Compound	IC50 [µM]
CN(Cc1nc(Nc2ccc(-c3cnc4cc(F)ccn34)c3c2C(=O)NC3)ccc1C1CCOC1)CC(F)(F)F (stereo in doubt) [I-754, (S)-4-(7-fluoroimidazo [1,2-a]pyridin-3-yl)-7-((6-((methyl(2,2.2-trifluoroethyl)amino)methyl)-5-(tetrahydrofuran-3-yl)pyridin-2-yl)amino)isoin-dolin-1-one]	< 0.1
CCN(CC)Cc1nc(Nc2ccc(-c3cnc4cc(F)ccn34)c3c2C(=O)NC3)ccc1N1CCOCC1 [I-785, 7-((6-((diethylamino)-methyl)-5-morpholinopyr-idin-2-yl)amino)-4-(7-fluoroimidazo [1,2-a]pyridin-3-yl)isoindolin-1-one]	< 0.1
CC(C)n1ccc2c(-c3ccc(Nc4ccc(N5CCN(C)CC5)cn4)c4c3CNC4=O)ccnc21 [I-48, 4-(1-isopropylpyrrolo [2,3-b]pyridin-4-yl)-7-[[5-(4-methylpiperazin-1-yl)-2-pyridyl]amino] isoindolin-1-one]	0.1 to 1
C[C@H]1C[C@H](O)CCN1c1ccc(Nc2ccc(-c3cnc4cnccn34)c3c2C(=O)NC3)nc1 [I-352, 7-((5-((2S,4R)-4-hydroxy-2-methylpiperidin-1-yl)pyridin-2-yl)amino)-4-(imidazo[1,2-a]pyrazin-3-yl)isoindolin-1-one]	< 0.1
Cc1ccn2c(-c3ccc(Nc4ccc(N5CCO[C@H](C(C)(C)O)C5)cn4)c4c3CNC4=O)cnc2c1 [I-490, 7-[[5-[(2S)-2-(1-hydroxy-1-methylethyl)morpholin-4-yl]-2-pyridyl]amino]-4-(7-methylimidazo [1,2-a]pyridin-3-yl)isoindolin-1-one]	< 0.1
Cn1ccc2c(-c3ccc(Nc4ccc(CS(C)(=O)=O)cn4)c4c3CNC4=O)ccnc21 [I-293, 4-(1-methyl-1H-pyrrolo[2,3-b]pyridin-4-yl)-7-((5-((methylsulfonyl)methyl)pyridin-2-yl)amino)isoindolin-1-one]	< 0.1
Cn1cnc2c(-c3ccc(Nc4ccc(N5CCNCC5)cn4)c4c3CNC4=O)cccc21 [I-122, 4-(1-methylbenzimidazol-4-yl)-7-[(5-piperazin-1-yl-2-pyridyl)amino] isoindolin-1-one]	< 0.1
CN(C)Cc1nc(Nc2ccc(-c3cnc4cc(F)ccn34)c3c2C(=O)NC3)ccc1C1(C#N)CCOCC1 [I-824, 4-(2-((dimethylamino)methyl)-6-((7-(7-fluoroimidazo [1,2-a]pyridin-3-yl)-3-oxoisoindolin-4-yl)amino)pyri-din-3-yl)tetrahydro-2H-pyran-4-carbonitrilc]	< 0.1

Results, then the molecule that gave them:

IC50 [µM]	Compound
< 0.1	CN(C)Cc1nc(Nc2ccc(-c3cnc4cc(F)ccn34)c3c2C(=O)NC3)ccc1N1CCC[C@H](O)C1 [I-532, 7-[[6-[(dimethylamino)-methyl]-5-[(3S)-3-hydroxy-1-piperipyl]-2-pyridyl]amino]-4-(7-fluoroimidazo [1,2-a]pyridin-3-yl)isoindolin-1-one]
> 1	O=C1NCc2c(-c3ccnc4cnccc34)ncc(Nc3ccc(N4CCC(O)CC4)cn3)c21 [I-592, 7-((5-(4-hydroxypiperidin-1-yl)pyridin-2-yl)amino)-4-(1,7-naphthyridin-4-yl)-2,3-dihydro-1H-pyrrolo[3,4-c]pyridin-1-one]
> 1	Cc1ccc(Nc2cnc(-c3ccnc4c3ccn4C)c3c2C(=O)NC3)nc1N(C)C1CNC1 [I-667, 7-((6-(azetidin-3-yl-(methyl)amino)-5-methylpyridin-2-yl)amino)-4-(1-methyl-1H-pyrrolo[2.3-b]pyridin-4-yl)-2,3-dihydro-1H-pyrrolo[3,4-c]pyridin-1-one]
< 0.1	Cc1ccc2ncc(-c3ccc(Nc4ccc(N5CCNCC5)cn4)c4c3CNC4=O)n2c1 [I-86, 4-(6-methylimidazo [1,2-a]pyridin-3-yl)-7-[(5-piperazin-1-yl-2-pyridyl)amino] isoindolin-1-one]
< 0.1	CC(C)(O)C1CCN(c2ccc(Nc3ccc(-c4cnc5cc(F)ccn45)c4c3C(=O)NC4)nc2)CC1 [I-224]
